Data on two substances can be found in article PMC2761383, “Structural and functional characteristics of xenavidin, the first frog avidin from Xenopus tropicalis” (BMC Structural Biology, 2009).

The nature of series [1]: Optical biosensor analysis (Biacore X) of 2-iminobiotin binding. An excerpt: The Biacore X optical biosensor instrument was used in the analysis, where the CM5 sensor chip was functionalized with 2-iminobiotin. The functionalization of the chip was done in three phases: First, the carboxymethyl dextrane was activated using a mixture containing 0.2 M EDC (1-ethyl-3-(3-dimethylaminopropyl) carbodiimide hydrochloride) and 0.05 M NHS (N-hydroxysuccinimide) in water. Second, in order to introduce amino groups to the surface, 1 M ethylenediamine (Fluka 03550) in water was applied. Third, a mixture of EDC (0.2 M) and 2-iminobiotin (10 mM) was applied on the surface in 25 mM Na-phosphate pH 6.5. The amount of 2-iminobiotin attached on the surface was 81 response units.
Xenavidin was injected onto the sensor chip in a 50 mM sodium carbonate buffer (pH 11.0) containing 1 M NaCl at 25°C and using a flow rate of 50 μl/min. […] The surface was regenerated between measurement cycles by injecting 20 μl of 0.5 M acetic acid followed by washing with the measurement buffer.
BIAevaluation software v. 4.1 was used for data analysis, and a global fitting method was used to analyze the data set. A period of 20 seconds from the beginning of each injection was included in the association phase fit and the dissociation rate analysis was performed for a 60-second period starting immediately after the end of the injection.

The test system of series [2] is proteinase K. In words: Limited proteolysis with proteinase K. The method, then: The stability of xenavidin against the proteinase K enzyme, which is known to cleave the L3,4-loop of avidin [41], was tested. The assay was performed in the presence or absence of biotin as previously described by Laitinen et al.. Protein samples were taken before the enzyme treatment and after adding enzyme at time points 30 min, 1 h, 2 h, 3 h, 18 h and 22 h (data not shown), and the samples were analyzed using SDS-PAGE analysis and Coomassie Brilliant Blue (Serva, Heidelberg, Germany) staining.

Series [3] in a line: Fluorescence spectroscopy dissociation analysis of fluorescent Bf560-biotin. Type of series: binding. As to the method:
The Quanta Master™ spectrofluorometer (Photon Technology International Inc., Lawrenceville, NJ) with a PTI Fluorescence Master System and the software Felix 32 was used to measure the biotin-binding properties of avidin, xenavidin and streptavidin. The analyses were done in a 50 mM sodium phosphate buffer (pH 7.0) containing 650 mM NaCl at two different temperatures (25 ± 1°C and 50 ± 1°C) by measuring the reversing of quenching of the biotin-coupled fluorescent probe ArcDia™ Bf560 (ArcDia Ltd., Turku, Finland) due to competition with free biotin (100-fold molar excess) as previously described. The spectrum of Bf560-biotin in the presence and absence of avidin is shown in [Additional file 4].

Setting [4] is: 2-iminobiotin chip, pH 11.0, 1 M NaCl, 25°C.
Where [5] appears, read: competition with free biotin (100-fold molar excess), pH 7.0.

As usually defined, the Kd is the free concentration of one partner at which half of the binding sites on the other are occupied at equilibrium, for simple one-to-one binding. In the case of “Avidin: chicken avidin, biotin-binding protein; control sample expressed in E. coli”, in series [1] (setting [4]), the Kd came to 102 nM, the kass came to 94000 M⁻¹ s⁻¹ and the kdiss was 0.0096 s⁻¹. Besides, in series [1] (2-iminobiotin functionalized chip, rounded value), the equilibrium dissociation constant (Kd) is 100 nM. Further, the “stability against proteinase K” value in series [2] (absence of biotin) was “fragments of 10 kDa and below”. In series [2] (presence of biotin), the “stability against proteinase K” value is “protected avidin from proteolytic cleavage”. The “Dissociation rate constant at 25°C” value in series [3] (25°C, competition with free biotin (100-fold molar excess), pH 7.0) was 2.3 s^-1 (× 10^-5). The “Dissociation rate constant at 50°C” value in series [3] (setting [5]) is 32.6 s^-1 (× 10^-5). Besides, the “Release after 1 h at 50°C” value in series [3] was found to be 76.5%.
In series [1] (setting [4]), “Streptavidin: bacterial biotin-binding protein from Streptomyces avidinii (Biomol GmbH); control sample” registered a Kd of 85 nM, a kass of 200000 M⁻¹ s⁻¹ and a kdiss of 0.017 s⁻¹. The “Dissociation rate constant at 50°C” value in series [3] (setting [5]) is recorded as 0.7 s^-1 (× 10^-5). In addition, in series [3], the “Release after 1 h at 50°C” value is listed as 5.1%.
